Assay [1] relates to bean rust (Uromyces appendiculatus). As to the kind of experiment: Greenhouse control of bean rust versus […] OPTIMUM and chemical agents. In kind it is in vivo. Particulars: bean plants, 200 k conidia/ml, ten days after infection; biologicals 1×10^8 cfu/ml, Tebuconazole 50 g a.i./ha, Chlorothalonil 500 g a.i./ha; 0.1875% TACTIC in all.
Assay [2] has the same test system. As to the kind of experiment: Greenhouse control of bean rust at varying rates of inoculation. Particulars: 200K conidia/ml, ten days after infection, biologicals 1×10^8 cfu/ml, Tebuconazole 50 g a.i./ha. In kind it is in vivo. Here is the method: The formulations and treatment methods used were the same as described for the previous experiment. One day after treatment application, the test plants were infected with bean rust (Uromyces appendiculatus) at an inoculation rate ranging from 50 k to 300 k conidia/ml. Ten days after infection with bean rust (Uromyces appendiculatus) the percent of disease control was evaluated for each of: […]

As to `CC(C)(C)C(O)(CCc1ccc(Cl)cc1)Cn1cncn1` (stereo not drawn) [Tebuconazole], the entries for the “Percent Disease Control” value in assay [1] and in assay [2] were 100% and 100 a %, respectively.
For the molecule `N#Cc1c(Cl)c(Cl)c(Cl)c(C#N)c1Cl` [Chlorothalonil], the “Percent Disease Control” value in assay [1] is given as 100%.
